Here are results for seven molecules from US20240002416A1 (Rheinische-Friedrich-Wilhelms-Universität Bonn, priority 2020, published 2024).

Holding throughout (type): cell-based
Test [1] addresses T1, MRGPRX4-83S (Homo sapiens, UniProt Q96LA9, L83S). Kind of test: Calcium assay (human glioblastoma LN229 cells expressing the MRGPRX4-83S). The following applies: Table 2; for EC50: calcium mobilization, LN229 cells, MRGPRX4-83S, read-out: EC50 ± SEM; for Emax: LN-229, efficacy based on 30 μM H-1 (set as 100%), read-out: Emax. Also noted: LN229 glioblastoma cells natively expressing the MRGPRX4-83S; endogenous in cells; host or cells: LN229 human glioblastoma cells. The procedure:
(§1) For β-arrestin recruitment assays, recombinant Chinese hamster ovary (CHO) cells expressing the human MRGPRX4 were used (DiscoverX/Eurofins) which allowed to measure β-galactosidase complementation upon β-arrestin recruitment. For calcium mobilization assays, recombinant astrocytes expressing MRGPX4-83L, or LN229 glioblastoma cells natively expressing the MRGPRX4-83S, were used.
(§2) The assays were performed as previously described for other rhodopsin-like GPCRs (Müller, C.E.; 8-Benzamidochromen-4-one-2-carboxylic acids: potent and selective agonists for the orphan G protein-coupled receptor GPR35. J. Med. Chem. 2013, 56:5182-97; Müller, C.E. Molecular Recognition of Agonists and Antagonists by the Nucleotide-Activated G Protein-Coupled P2Y2 Receptor. J. Med. Chem. 2017, 60:8425-8440).

Test [2] addresses T1, MRGPRX4-83S. Kind of test: β-arrestin assay (CHO β-arrestin human MRGPRX4-83S). Also noted: host or cells: CHO β-arrestin cells. The settings on record: Table 2; for EC50: β-arrestin recruitment, CHO cells, MRGPRX4-83S, read-out: EC50 ± SEM; for Emax: efficacy based on 100 nM B-16 (set as 100%), read-out: Emax. As to the method:
as §1, §2
(Activated receptors often draw arrestin, which recruitment assays turn into a signal.)

Test [3] concerns the target T2, human MRGPRX4-83L (Homo sapiens, UniProt Q96LA9).
T2 construct: host or cells: CHO β-arrestin cells
The test can be described thus: β-arrestin assay (CHO β-arrestin ARMS1-ProLink 2 human MRGPRX4 83L). The settings on record: Table 1; for IC50: inhibition of the effect of 2.6 μM B-16; for EC50: β-arrestin recruitment, CHO cells, MRGPRX4-83L, means of 3-4 experiments, read-out: EC50 ± SEM; for Emax: efficacy based on maximal effect of 100 nM B-16 (set as 100%), read-out: Emax. As to the method:
as §1, §2

Test [4] has as its target T2, human MRGPRX4-83L. Kind of test: Calcium assay (human MRGPRX4 83L), recombinant astrocytes. The settings on record: for EC50 / Emax: Table 1; for EC50: calcium mobilization, MRGPRX4-83L, read-out: EC50 ± SEM; for Emax: efficacy based on maximal effect of 1 μM B-16 (set as 100%), read-out: Emax. The procedure: as §1, §2

T1 sequence (Q96LA9 whole entry L83S): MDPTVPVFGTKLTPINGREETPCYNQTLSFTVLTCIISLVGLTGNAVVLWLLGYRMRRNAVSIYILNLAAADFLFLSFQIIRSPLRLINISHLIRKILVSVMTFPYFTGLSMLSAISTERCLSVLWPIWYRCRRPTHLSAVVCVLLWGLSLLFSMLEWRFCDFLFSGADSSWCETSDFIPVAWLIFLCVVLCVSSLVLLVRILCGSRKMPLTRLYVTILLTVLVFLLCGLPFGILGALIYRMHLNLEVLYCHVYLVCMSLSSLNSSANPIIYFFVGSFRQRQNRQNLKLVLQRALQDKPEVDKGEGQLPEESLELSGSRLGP
T2 sequence (Q96LA9 whole entry): as the sequence (Q96LA9 whole entry L83S) above, with S83L counted along it

Usually EC50 stands for the concentration needed to bring the measured effect to its halfway point. Usually IC50 stands for the concentration needed to halve the response being measured. For `C#CCn1c(=O)c2[nH]c(/C=C/c3cccc(OC)c3)nc2n(CCCOP(=O)(O)O)c1=O` [H-3, (E)-3-(8-(3-Methoxystyryl)-2,6-dioxo-1-(prop-2-yn-1-yl)-1,2,6,7-tetrahydro-3H-purin-3-yl)propyl dihydrogen phosphate, reference compound], the EC50 at MRGPRX4-83S [1], at MRGPRX4-83S [2], on human MRGPRX4-83L [3] and on human MRGPRX4-83L [4] was greater than 10000 nM in each case. The IC50 against human MRGPRX4-83L [3] and on human MRGPRX4-83L [4] was greater than 10000 nM each time.

In general, Emax refers to the size of the effect at its maximum, as opposed to the concentration needed. Consider `C#CCn1c(=O)c2c(nc(CCc3cccc(OC)c3)n2C)n(CCCOP(=O)(O)O)c1=O` [H-1, 3-(8-(3-Methoxyphenethyl)-7-methyl-2,6-dioxo-1-(prop-2-yn-1-yl)-1,2,6,7-tetrahydro-3H-purin-3-yl)propyl dihydrogen phosphate, reference compound], for which the Emax on MRGPRX4-83S [1] was 98%; on MRGPRX4-83S [2], 86%; on human MRGPRX4-83L [3], 97%; at human MRGPRX4-83L [4], 107%. The EC50 at MRGPRX4-83S [1] was determined as 238 ± 11 nM; on MRGPRX4-83S [2], 374 ± 111 nM; at human MRGPRX4-83L [3] it was 13000 ± 4100 nM; at human MRGPRX4-83L [4] it was 574 ± 179 nM.

Take `CCn1c(=O)c2[nH]c(CCc3cccc(OC)c3)nc2n(CCCCP(=O)(O)O)c1=O` [B-12, (4-(1-Ethyl-8-(3-methoxyphenethyl)-2,6-dioxo-1,2,6,7-tetrahydro-3H-purin-3-yl)butyl)phosphonic acid]: the Emax at MRGPRX4-83S [1] is 94%; on MRGPRX4-83S [2], 102%; on human MRGPRX4-83L [4] it was 104%. Besides, the EC50 on MRGPRX4-83S [1] was 214 ± 51 nM; on MRGPRX4-83S [2], 1190 ± 50 nM; on human MRGPRX4-83L [3], greater than 10000 nM; on human MRGPRX4-83L [4], 3800 ± 190 nM. For the same molecule, the “value in brackets beside IC50 >10” value at human MRGPRX4-83L [3] (bracketed value ± spread in IC50 column, not defined, inhibition of 2.6 μM B-16) is reported as −27 ± 9. This molecule came in with an IC50 against human MRGPRX4-83L [3] greater than 10000 nM.

`C#CCn1c(=O)c2c(nc(CCc3ccccc3Br)n2C)n(CCCCP(=O)(O)OCC)c1=O` [D-1, Ethyl hydrogen (4-(8-(2-bromophenethyl)-7-methyl-2,6-dioxo-1-(prop-2-yn-1-yl)-1,2,6,7-tetrahydro-3H-purin-3-yl)butyl)phosphonate]: the Emax was 105% on MRGPRX4-83S [1], 120% on MRGPRX4-83S [2], 108% on human MRGPRX4-83L [3] and 115% at human MRGPRX4-83L [4]. For the same molecule, the EC50 was determined as 134 ± 12 nM on MRGPRX4-83S [1], 114 ± 23 nM at MRGPRX4-83S [2], 395 ± 126 nM at human MRGPRX4-83L [3] and 55.5 ± 9 nM at human MRGPRX4-83L [4].

Regarding `C#CCn1c(=O)c2c(nc(CCc3cccc(OC)c3)n2C)n(CCCCP(=O)(O)O)c1=O` [B-15, (4-(8-(3-Methoxyphenethyl)-7-methyl-2,6-dioxo-1-(prop-2-yn-1-yl)-1,2,6,7-tetrahydro-3H-purin-3-yl)butyl)phosphonic acid], the Emax on MRGPRX4-83S [1] was found to be 132%; at MRGPRX4-83S [2], 140%; at human MRGPRX4-83L [3], 141%; at human MRGPRX4-83L [4], 113%. Besides, the EC50 on MRGPRX4-83S [1] stood at 19.2 ± 3.5 nM; at MRGPRX4-83S [2], 30 ± 5.8 nM; at human MRGPRX4-83L [3], 6280 ± 1380 nM; on human MRGPRX4-83L [4] it was 333 ± 7 nM.

As to `C#CCn1c(=O)c2[nH]c(CCc3cccc(OC)c3)nc2n(CCCCP(=O)(O)O)c1=O` [B-2, (4-(8-(3-Methoxyphenethyl)-2,6-dioxo-1-(prop-2-yn-1-yl)-1,2,6,7-tetrahydro-3H-purin-3-yl)butyl)phosphonic acid], the Emax at MRGPRX4-83S [1] is 99%; on MRGPRX4-83S [2], 98%; on human MRGPRX4-83L [3] it was 91%; on human MRGPRX4-83L [4], 102%. Moreover, the EC50 on MRGPRX4-83S [1] amounted to 11.2 ± 1.3 nM; at MRGPRX4-83S [2] it was 32 ± 11 nM; on human MRGPRX4-83L [3], 5710 ± 1230 nM; on human MRGPRX4-83L [4], 435 ± 78 nM.

In the case of `CCCn1c(=O)c2c(nc(CCc3cccc(OC)c3)n2C)n(CCCOP(=O)(O)O)c1=O` [H-2, 3-(8-(3-Methoxyphenethyl)-7-methyl-2,6-dioxo-1-propyl-1,2,6,7-tetrahydro-3H-purin-3-yl)propyl dihydrogen phosphate, reference compound], the figures for the Emax on MRGPRX4-83S [1] and at human MRGPRX4-83L [4] were 88% and 113%, respectively. Moreover, the EC50 on MRGPRX4-83S [1] is 801 ± 233 nM; on MRGPRX4-83S [2] it was 674 ± 50 nM; on human MRGPRX4-83L [3], greater than 10000 nM; at human MRGPRX4-83L [4], 2500 ± 730 nM. This molecule also gave an IC50 on human MRGPRX4-83L [3] greater than 10000 nM.
